Assay [1] has as its target T1, μ receptor (Homo sapiens, UniProt P35372).
T1 construct: An adenylyl cyclase assay using human SH-SY5Y neuroblastoma cell line membranes; endogenous in cells; host or cells: human SH-SY5Y neuroblastoma cells, retinoic-acid differentiated; membranes
As to the kind of experiment: Adenylyl cyclase assay, SH-SY5Y neuroblastoma cell membranes. The assay is classed as biochemical. The following applies: AGONISTS section; cyclic AMP level, agonist alone at 100 μM.
Description: An adenylyl cyclase assay using human SH-SY5Y neuroblastoma cell line membranes was used to rapidly determine the opioid agonists or antagonist properties of individual peptides. Opioid agonist inhibit adenylyl cyclase activity, resulting in reduced levels of cyclic AMP.
Cell membranes were prepared for use in the adenylyl cyclase assays as previously described (Law et al., Mol. Pharmacol., 23:26-35 (1983), which is herein incorporated by reference). After the initial centrifugation at 200×g for 15 min at 4° C., the cells were resuspended in sucrose buffer (0.32M sucrose, 40 mM HEPES, 2 mMEGTA, pH 7.6). Cells were centrifuged again at 200×g, then homogenized in sucrose buffer with five strokes of a Dounce Homogenizer (Wheaton Instruments, Millville, N.J.). […]
SH-SY5Y membranes were incubated in a final volume of 100 μl of 40 mM HEPES, pH 7.7, containing 15 units of creatine phosphokinase, 20 mM phosphocreatine, 1 mM 1,10-o-phenanthroline, 60 μM isobutylmethylxanthine (IBMX), 50 μM ATP, 50 μM GTP, 3 mM MgCl2 and 100 mM NaCl. […] The amount of cyclic AMP present in 100 μl of the supernatant, equivalent to the cyclic AMP produced by 15 μg of membrane protein, was determined using a cyclic AMP kit (Diagnostic Products, Los Angeles, Calif.). […] The final supernatants were counted in 10 ml of Ecolite (+) scintillation fluid (ICN Pharmaceuticals, Covina, Calif.).

Assay [2] relates to MU RECEPTOR
The experiment in a line: Agonist or antagonist activity by adenylyl cyclase assay or GPI assay (not specified which). The conditions noted are these: Table 13.

In assay [3] the target is T2, δ receptors (Rattus norvegicus, UniProt P33533).
T2 construct: Radioreceptor assays selective for δ receptors were performed using rat brain homogenates; tissue Harlan Bioproducts for Science; host or cells: rat brain crude membrane homogenate
The experiment in a line: Radioreceptor assay selective for δ receptors ([3H]-naltrindole). It is filed as binding. The following applies: ratio of IC50 values. How it is done:
Radioreceptor assays selective for δ receptors were performed using rat brain homogenates as above and [^3 H]-naltrindole (0.5 nM, specific activity 34.7 Ci/mmol) as radioligand in Tris buffer containing 100 μM phenylmethylsulfonyl fluoride (PMSF), 5 mMMgCl2 and 1 mg/ml bovine serum albumin (BSA), pH 7.4. Samples were incubated for 2.5 hr. Standard curves were prepared using 0.10-3200 nM [^3 H]-D-Pen2, Pen5 ]-enkephalin ([^3 H]-DPDPE).

Assay [4] deals with T3, κ receptors (Cavia porcellus, UniProt P41144).
T3 construct: tissue homogenates prepared from guinea pig brains (cortex and cerebellum); tissue Harlan Bioproducts for Science; host or cells: guinea pig brain (cortex and cerebellum) homogenate
As to the kind of experiment: Radioreceptor assay selective for κ receptors ([3H]-U69,593). The assay is classed as binding, guinea pig. The conditions noted are these: ratio of IC50 values. The procedure: Assays selective for κ receptors were carried out using [^3 H]-U69,593 (3 nM, specific activity 62 Ci/mmol) as the radioligand and tissue homogenates prepared from guinea pig brains (cortex and cerebellum) using Tris buffer containing 100 μM PMSF, 5 mMMgCl2 and 1 mg/ml BSA, pH 7.4. Sample tubes were incubated for 2.5 hr.

Assay [5] concerns guinea-pig ileum. The conditions noted are these: inhibition of electrically stimulated contraction; read-out: GPI IC50.
Excerpt: The GPI assay (Kosterlitz et al., Br. J. Pharam. 39:398-418 (1970), which is incorporated herein by reference), is one of the most widely used assays for the determination of opioid activities in vitro. The assay is based on the ability of opioid agonists to inhibit electrically stimulated contraction in tissue. GPI is not a "clean" assay insofar as the ileum preparation contains both μ and κ receptors. However, μ receptor mediated-effects in the GPI can be distinguished from κ receptor mediated effects by determining Ke values for naloxone as the antagonist (μ effects: Ke ~1-3 nM); κ effects: Ke ~20-30 nM) or by using specific μ or κ antagonists.
The guinea pigs were killed by decapitation. […] Isometric contractions were measured via strain gauge force transducers and recorded on stripchart recorders.
In all bioassays, a dose-response curve with a reference compound (e.g., [D-Ala^2, Leu^5 ]enkephelinamide or U50,488) is used in each preparation. […] Ke values for naloxone or other antagonists are determined from the ratio of IC50 values (DR) obtained with the peptide under investigation in the presence and absence of a fixed concentration of the antagonist, using the formula Ke =a/(DR-1) ("a"=fixed concentration). A log dose-response curve is obtained with [Leu^5 ]enkephalin for each ileum and vas deferens preparation and the IC50 value is determined. […]
Assay [6] concerns mouse vas deferens. The experiment in a line: Mouse vas deferens (MVD) bioassay. The following applies: inhibition of electrically stimulated contraction. From the text:
The mouse vas deferens (MVD) bioassay was also used to determine whether a peptide is an opioid agonist or an opiod antagonist. Again, such information is not available from the radioreceptor binding assay results.
The MVD assay (Henderson et al., Br. J. Pharma. 12:119-127 (1957), which is incorporated herein by reference) is another one of the most widely used assays for the determination of opioid activities in vitro. This assay, like the GPI assay, is based on the ability of opioid agonists to inhibit electrically stimulated contractions in tissue. The MVD assay is also not "clean" in that, in addition to the predominant δ receptor, the μ and κ receptors are also present. […]
Mouse vasa deferentia were dissected and placed in Krebs solution. The responses of the longitudinal muscle were recorded under a basal tension of 0.5 g and excited by pulses of 1 millisecond duration.
In all bioassays, a dose-response curve with a reference compound (e.g., [D-Ala^2, Leu^5 ]enkephelinamide or U50,488) is used in each preparation. […] Potencies of new compounds to be tested are determined relative to that of the reference compound, and their IC50 values are normalized based on an average IC50 value which has been obtained for the reference compound by performance of many determinations with a large number of preparations. […]

Broadly, the IC50 is the point on the concentration scale where inhibition reaches its midpoint.

Where no end group is shown, it is not given here. [ ]: non-standard residue; d: D form.

T1 sequence (P35372 whole entry): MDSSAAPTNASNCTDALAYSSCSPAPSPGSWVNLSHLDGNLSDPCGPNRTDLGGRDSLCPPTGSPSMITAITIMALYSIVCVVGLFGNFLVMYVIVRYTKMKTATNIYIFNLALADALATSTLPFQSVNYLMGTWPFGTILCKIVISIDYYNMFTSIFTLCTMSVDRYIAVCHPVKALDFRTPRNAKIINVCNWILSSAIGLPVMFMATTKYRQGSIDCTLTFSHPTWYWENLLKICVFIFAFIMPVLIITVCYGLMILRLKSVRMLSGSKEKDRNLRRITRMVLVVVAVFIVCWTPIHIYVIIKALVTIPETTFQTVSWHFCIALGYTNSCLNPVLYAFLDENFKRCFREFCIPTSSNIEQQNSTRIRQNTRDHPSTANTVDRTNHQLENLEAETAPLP
T3 sequence (P41144 whole entry): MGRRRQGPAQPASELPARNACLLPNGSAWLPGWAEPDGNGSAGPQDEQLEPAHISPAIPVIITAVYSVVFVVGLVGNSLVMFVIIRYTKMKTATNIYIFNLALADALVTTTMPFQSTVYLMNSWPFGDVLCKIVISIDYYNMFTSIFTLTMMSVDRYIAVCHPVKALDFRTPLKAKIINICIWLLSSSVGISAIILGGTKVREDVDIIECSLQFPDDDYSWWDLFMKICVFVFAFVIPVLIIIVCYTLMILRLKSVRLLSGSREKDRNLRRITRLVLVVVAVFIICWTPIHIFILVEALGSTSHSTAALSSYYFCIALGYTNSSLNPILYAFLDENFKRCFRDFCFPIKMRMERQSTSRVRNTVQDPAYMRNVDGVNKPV
T2 sequence (P33533 whole entry): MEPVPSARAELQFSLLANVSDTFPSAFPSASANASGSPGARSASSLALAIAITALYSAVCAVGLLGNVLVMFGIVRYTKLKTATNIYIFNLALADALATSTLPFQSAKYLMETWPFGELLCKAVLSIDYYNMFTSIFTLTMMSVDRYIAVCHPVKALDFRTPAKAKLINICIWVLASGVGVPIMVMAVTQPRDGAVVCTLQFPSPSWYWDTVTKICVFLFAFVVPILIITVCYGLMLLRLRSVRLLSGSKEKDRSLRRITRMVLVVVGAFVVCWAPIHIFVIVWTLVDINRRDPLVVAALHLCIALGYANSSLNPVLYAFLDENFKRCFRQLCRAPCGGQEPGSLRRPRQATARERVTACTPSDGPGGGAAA

As for `C[C@@H](NC(=O)[C@@H](N)Cc1ccc(O)cc1)C(=O)NCC(=O)N(C)[C@@H](Cc1ccccc1)C(=O)NCCO` [DAMGO, [D-Ala^2, MePhe^4, Gly-ol^5]enkephalin], the “% Basal Control” value in assay [1] is 34 ± 6%.
Take “(D)Ile--(D)Met--(D)Thr--(D)Trp--Gly--(D)Pro--NH2 ([dI][dM][dT][dW]G[dP]-NH2; N-terminus assumed; SMILES CC[C@@H](C)[C@@H](N)C(=O)N[C@H](CCSC)C(=O)N[C@@H](C(=O)N[C@H](Cc1c[nH]c2ccccc12)C(=O)NCC(=O)N1CCC[C@@H]1C(N)=O)[C@H](C)O) [SEQ ID NO. 130]”: the “AGONIST OR ANTAGONIST” value in assay [2] is “Agonist”.
Regarding Trp--Trp--Pro--Arg--NH2 [SEQ ID NO. 69], the δ/μ in assay [3] was 1,740. The κ/μ in assay [4] is 2,060.
In the case of WWPKHK-NH2 [SEQ ID NO. 50], the IC50 amounted to 270 ± 19 nM in assay [5] and 45 ± 7 nM in assay [6].

(Values after US5641861A, “μopioid receptor ligands: agonists and antagonists” (Torrey Pines Institute For Molecular Studies, priority 1995, dated 1997).)
